pIC50: −log10 of the molar value.

Experimental findings from article PMC10821019, “F16 Hybrids Derived from Steviol or Isosteviol Are Accumulated in the Mitochondria of Tumor Cells and Overcome Drug Resistance” (Molecules, 2024) are described below.

Series [1] relates to CCD18Co (non-malignant human fibroblasts). The series can be described thus: SRB cytotoxicity assay, CCD18Co. Conditions: 72 h treatment, mean n = 3, SD 5-10%. The format is cell-based. An excerpt:
(§1) All compounds were screened for their cytotoxic activity and tumor cell selectivity using our standard model, previously described, comprising a selection of human tumor cell lines representing different solid tumor entities and non-malignant human fibroblasts (CCD18Co) including the cell line pair A2780/A2780cis, a well-known model of acquired drug resistance.
(§2) Reagents were bought from commercial suppliers and used without further purification. The solvents were dried according to the usual procedures. TLC was performed on silica gel (Macherey-Nagel, detection with UV absorption; Macherey-Nagel, Düren, Germany). […] Numbering in the NMR spectra: 1–20 (diterpene core), 21–24 for O-(CH2)n-N fragment followed by the pyridinium ring, the ethenyl moiety and the indole moiety. […] IR spectra were recorded on a Perkin-Elmer Spectrum Two (UATR Two Unit, Perkin-Elmer GmbH, Rodgau, Germany). […] Both media were supplemented with 10% fetal bovine serum (Biowest, Nuaillé, France) and 1% penicillin-streptomycin (Sigma-Aldrich).
(§3) Cytotoxic activities of compounds were analyzed using the SRB cytotoxicity assay. Cells were seeded in 96-well plates and after 24 h were treated with serial dilutions of compounds for 72 h. All subsequent steps were performed according to the previously described SRB assay protocol. Dose–response curves and calculation of IC50 values, including standard deviations, were carried out using GraphPad Prism8.
Background: Sulforhodamine B stains cellular protein and so reports cell mass.

For series [2], the system named is A2780 (ovarian carcinoma). Kind of series: SRB cytotoxicity assay, A2780. Type of series: cell-based, human. Particulars: for selectivity index 1 (SI 1): CCD18Co/A2780; for pIC50: SRB assay, 72 h treatment, mean n = 3, SD 5-10%.
Text: as §1, §2, §3

The test system of another series is MCF7 (breast carcinoma). The series can be described thus: SRB cytotoxicity assay, MCF7. The format is cell-based, human. Conditions: 72 h treatment, mean n = 3, SD 5-10%.
Text: as §1, §2, §3

The test system of series [3] is A2780cis (resistant derivative of A2780). Kind of series: SRB cytotoxicity assay, A2780cis. The format is cell-based, human. Particulars: for pIC50: SRB assay, 72 h treatment, mean n = 3, SD 5-10%; for resistance index (RI): quotient IC50 values A2780cis/A2780.
Text: as §1, §2, §3

Series [4] relates to HT29 (colorectal carcinoma). The series can be described thus: SRB cytotoxicity assay, HT29. Type of series: cell-based, human. Conditions: 72 h treatment, mean n = 3, SD 5-10%.
Text: as §1, §2, §3

The subject of a further series is A549 (lung carcinoma). The series can be described thus: SRB cytotoxicity assay, A549. Type of series: cell-based, human. Particulars: for selectivity index 2 (SI 2): CCD18Co/A549; for pIC50: SRB assay, 72 h treatment, mean n = 3, SD 5-10%.
Text: as §1, §2, §3

In the case of `CC12CCC3C(CCC4C(C)(C(=O)OCCCCBr)CCCC34C)(CC1=O)C2` (stereo not drawn) [Compound 23, 4-Bromobutyl (4α, 8β, 13β) 13-Methyl-16-oxo-17-norkauran-18-oate], the pIC50 (as a rule, −log10 of the IC50, conventionally taken in molar units) is 4.50 in series [1]; 4.89 in series [2]; 4.74 with MCF7 (breast carcinoma); 4.54 in series [3]; 4.61 in series [4]; 4.46 in the series with A549 (lung carcinoma). Moreover, the “selectivity index 1 (SI 1)” value in series [2] is given as 2.40. The “resistance index (RI)” value in series [3] was found to be 2.23. Moreover, the “selectivity index 2 (SI 2)” value in the series on A549 (lung carcinoma) is reported as 0.91.

For the molecule `C=C1C[C@@]23CC[C@H]4[C@@](C)(CCC[C@@]4(C)C(=O)OCCCC[n+]4ccc(/C=C/c5c[nH]c6ccccc56)cc4)[C@@H]2CC[C@]1(O)C3.[Br-]` [Compound 24], the pIC50 in series [1] was 4.88; in series [2] it was 6.62; in the series on MCF7 (breast carcinoma) it was 6.24; in series [3], 6.55; in series [4] it was 6.06; in the series on A549 (lung carcinoma), 5.56. In addition, the “selectivity index 1 (SI 1)” value in series [2] worked out at 53.96. Besides, the “tumor cell selectivity, in words” value in series [2] (tumor cells vs non-malignant fibroblasts CCD18Co) is given as “retained selectivity”. In addition, the “drug resistance in the A2780/A2780cis model, in words” value in series [3] (A2780cis vs A2780) is listed as “able to reduce or even overcome drug resistance”. For the same molecule, the “resistance index (RI)” value in series [3] is listed as 1.13. In addition, in the series with A549 (lung carcinoma), the “selectivity index 2 (SI 2)” value worked out at 4.74.

For the molecule `C=C1C[C@@]23CC[C@H]4[C@@](C)(CCC[C@@]4(C)C(=O)OCCCC[n+]4cccc(/C=C/c5c[nH]c6ccccc56)c4)[C@@H]2CC[C@]1(O)C3.[Br-]` [Compound 26, 4-{3-[(E)-2-(1H-Indol-3-yl)-ethenyl]-pyridinium-1-yl}butyl (4α)-13-Hydroxykaur-16-en-18-oate Bromide], the pIC50 in series [1] was 4.93; in series [2], 5.89; in the series with MCF7 (breast carcinoma) it was 5.70; in series [3], 5.74; in series [4], 5.61; in the series with A549 (lung carcinoma), 5.16. For the same molecule, the “selectivity index 1 (SI 1)” value in series [2] is given as 9.14. In series [3], the “resistance index (RI)” value is on record as 1.42. Also, the “selectivity index 2 (SI 2)” value in the series with A549 (lung carcinoma) came out at 1.69.

For the molecule `CC12CCC3C(CCC4C(C)(C(=O)OCCCC[n+]5cccc(C=Cc6c[nH]c7ccccc67)c5)CCCC34C)(CC1=O)C2.[Br-]` (stereo not drawn) [Compound 27, 4-{3-[(E)-2-(1H-Indol-3-yl)ethenyl]-pyridinium-1-yl}butyl (4α, 8β, 13β) 13-Methyl-16-oxo-17-norkauran-18-oate Bromide], the pIC50 was 4.97 in series [1]; 6.12 in series [2]; 5.80 in the series on MCF7 (breast carcinoma); 5.90 in series [3]; 5.66 in series [4]; 5.20 with A549 (lung carcinoma). Moreover, the “selectivity index 1 (SI 1)” value in series [2] was found to be 14.18. For the same molecule, the “resistance index (RI)” value in series [3] was determined as 1.67. Besides, in the series on A549 (lung carcinoma), the “selectivity index 2 (SI 2)” value was determined as 1.72.

Consider `C=C1C[C@@]23CC[C@H]4[C@@](C)(CCC[C@@]4(C)C(=O)OCCCC[n+]4ccccc4/C=C/c4c[nH]c5ccccc45)[C@@H]2CC[C@]1(O)C3.[Br-]` [Compound 28], for which the pIC50 is 4.96 in series [1]; 6.30 in series [2]; 5.93 in the series on MCF7 (breast carcinoma); 5.77 in series [3]; 5.75 in series [4]; 5.12 with A549 (lung carcinoma). Moreover, the “selectivity index 1 (SI 1)” value in series [2] was 21.75. For the same molecule, the “resistance index (RI)” value in series [3] is listed as 3.33. The “selectivity index 2 (SI 2)” value in the series with A549 (lung carcinoma) was 1.46.

Turning to `CC12CCC3C(CCC4C(C)(C(=O)OCCCC[n+]5ccccc5C=Cc5c[nH]c6ccccc56)CCCC34C)(CC1=O)C2.[Br-]` (stereo not drawn) [Compound 29, 4-{2-[(E)-2-(1H-Indol-3-yl)ethenyl]pyridinium-1-yl}-butyl (4α, 8β, 13β) 13-Methyl-16-oxo-17-norkauran-18-oate Bromide], the pIC50 in series [1] was 4.73; in series [2], 5.97; with MCF7 (breast carcinoma) it was 5.69; in series [3] it was 5.49; in series [4], 5.42; in the series on A549 (lung carcinoma), 5.01. In addition, in series [2], the “selectivity index 1 (SI 1)” value came out at 17.61. Also, the “resistance index (RI)” value in series [3] was found to be 3.05. The “selectivity index 2 (SI 2)” value in the series with A549 (lung carcinoma) came out at 1.88.
